From ChEMBL document CHEMBL4433257, “Novel conjugates of podophyllotoxin and coumarin: Synthesis, cytotoxicities, cell cycle arrest, binding CT DNA and inhibition of Topo IIβ” (Bioorg Med Chem Lett, 2019)
Activity calls are given as the source filed them. No cut-off for these calls is given here.

Experiments:
HepG2 = assay: Cytotoxicity against human HepG2 cells incubated for 48 hrs by MTT assay; type: functional, cell-based; details: HepG2, 48 h
A549 = assay: Cytotoxicity against human A549 cells incubated for 48 hrs by MTT assay; type: functional, cell-based; details: A549, 48 h
HeLa = assay: Cytotoxicity against human HeLa cells incubated for 48 hrs by MTT assay; type: functional, cell-based
LoVo [1] = assay: Cytotoxicity against human LoVo cells incubated for 48 hrs by MTT assay; type: functional, cell-based
LoVo [2] = assay: Induction of cell cycle arrest in human LoVo cells assessed as decrease in topo 2alpha expression level at 5 uM incubated for 12 hrs by Western blot analysis; type: functional, cell-based
LoVo [3] = assay: Induction of cell cycle arrest in human LoVo cells assessed as decrease in cyclin D1 gene expression level at 10 uM incubated for 24 hrs by Western blot analysis; type: functional, cell-based
LoVo [4] = assay: Cell cycle arrest in human LoVo cells assessed as accumulation at G1 phase at 5 uM incubated for 72 hrs by propidium iodide staining based flow cytometry analysis relative to control; type: functional
LoVo [5] = assay: Induction of cell cycle arrest in human LoVo cells assessed as change in cyclin D1 gene expression level at 10 uM incubated for 24 hrs by Western blot analysis; type: functional, cell-based
LoVo [6] = assay: Induction of cell cycle arrest in human LoVo cells assessed as decrease in topo 2beta expression level at 5 uM incubated for 12 hrs by Western blot analysis; type: functional, cell-based
LoVo [7] = assay: Cell cycle arrest in human LoVo cells assessed as accumulation at G1 phase at 5 uM incubated for 24 hrs by propidium iodide staining based flow cytometry analysis (reference value: 51.9%); type: functional
LoVo [8] = assay: Induction of cell cycle arrest in human LoVo cells assessed as change in P21 gene expression level at 10 uM incubated for 24 hrs by Western blot analysis; type: functional, cell-based
LoVo [9] = assay: Antiproliferative activity against human LoVo cells assessed as disorganization of microtubule network at 10 uM incubated for 6 hrs by immunofluorescence microscopy assay; type: functional, cell-based
LoVo [10] = assay: Antiproliferative activity against human LoVo cells assessed as nuclear changes at 10 uM incubated for 6 hrs by immunofluorescence microscopy assay; type: functional, cell-based
LoVo [11] = assay: Induction of cell cycle arrest in human LoVo cells assessed as change in cdc2 gene expression level at 10 uM incubated for 24 hrs by Western blot analysis; type: functional, cell-based
LoVo [12] = assay: Cell cycle arrest in human LoVo cells assessed as increase in accumulation at G1 phase incubated for 24 hrs by propidium iodide staining based flow cytometry analysis; type: functional
LoVo [13] = assay: Antiproliferative activity against human LoVo cells assessed as meshy microtubule network shrinkage around nucleus incubated for 6 hrs by immunofluorescence microscopy assay; type: functional, cell-based
LoVo [14] = assay: Cell cycle arrest in human LoVo cells assessed as accumulation at G1 phase at 5 uM incubated for 48 hrs by propidium iodide staining based flow cytometry analysis relative to control; type: functional
LoVo [15] = assay: Induction of cell cycle arrest in human LoVo cells assessed as decrease in cyclin D1 gene expression level incubated for 24 hrs by Western blot analysis; type: functional, cell-based
LoVo [16] = assay: Antiproliferative activity against human LoVo cells assessed as induction of nuclear cleavage at 20 uM incubated for 6 hrs by immunofluorescence microscopy assay; type: functional, cell-based
LoVo [17] = assay: Antiproliferative activity against human LoVo cells assessed as disruption of microtubule organization at 10 to 20 uM incubated for 6 hrs by immunofluorescence microscopy assay; type: functional, cell-based
Calf thymus DNA [18] = assay: Binding affinity to calf thymus DNA assessed as reduction in absorbance of DNA at 50 uM using varying DNA level by UV/visible spectrophotometric analysis; type: nucleic-acid assay; details: Bos taurus
LoVo [19] = assay: Induction of cell cycle arrest in human LoVo cells assessed as change in cdc2 gene expression level at 1 to 10 uM incubated for 24 hrs by Western blot analysis; type: functional, cell-based
Calf thymus DNA [20] = assay: Binding affinity to calf thymus DNA assessed as reduction in compound emission intensity at 10 uM using varying DNA level by spectrofluorimetric analysis; type: nucleic-acid assay; details: Bos taurus
LoVo [21] = assay: Antiproliferative activity against human LoVo cells assessed as interference with mitosis at 10 to 20 uM incubated for 6 hrs by immunofluorescence microscopy assay; type: functional, cell-based
LoVo [22] = assay: Cell cycle arrest in human LoVo cells assessed as accumulation at G1 phase at 10 uM incubated for 24 hrs by propidium iodide staining based flow cytometry analysis (reference value: 51.9%); type: functional
LoVo [23] = assay: Antiproliferative activity against human LoVo cells assessed as induction of nuclei damage at 10 to 20 uM incubated for 6 hrs by immunofluorescence microscopy assay; type: functional, cell-based
LoVo [24] = assay: Cell cycle arrest in human LoVo cells assessed as decrease in G2/M phase cell count incubated for 24 hrs by propidium iodide staining based flow cytometry analysis; type: functional
LoVo [25] = assay: Induction of cell cycle arrest in human LoVo cells assessed as increase in P21 gene expression level incubated for 24 hrs by Western blot analysis; type: functional, cell-based
LoVo [26] = assay: Induction of cell cycle arrest in human LoVo cells assessed as change in cyclin B1 gene expression level at 1 to 10 uM incubated for 24 hrs by Western blot analysis; type: functional, cell-based
LoVo [27] = assay: Antiproliferative activity against human LoVo cells assessed as abnormal mitotic spindle formation at 20 uM incubated for 6 hrs by immunofluorescence microscopy assay; type: functional, cell-based
Calf thymus DNA [28] = assay: Binding affinity to calf thymus DNA assessed as reduction in absorbance of DNA at 20 to 40 uM by UV/visible spectrophotometric analysis; type: nucleic-acid assay; details: Bos taurus

Structure (SMILES): COc1ccc2oc(=O)cc(OCc3cn([C@@H]4c5cc6c(cc5[C@@H](c5cc(OC)c(O)c(OC)c5)[C@H]5C(=O)OC[C@@H]54)OCO6)nn3)c2c1
- IC50 (HepG2): 8 µM
- IC50 (A549): 19.6 µM
- IC50 (HeLa): 18.3 µM
- IC50 (LoVo [1]): 9.4 µM

Structure (SMILES): COc1cc([C@@H]2c3cc4c(cc3[C@@H](n3cc(COc5cc(=O)oc6ccccc56)nn3)[C@H]3COC(=O)[C@H]23)OCO4)cc(OC)c1O
- IC50 (HepG2): 31.3 µM
- IC50 (A549): > 100 µM
- IC50 (HeLa): 32.2 µM
- IC50 (LoVo [1]): 40.8 µM

Structure (SMILES): COc1cc([C@@H]2c3cc4c(cc3[C@@H](n3cc(COc5cc(=O)oc6cc(Br)ccc56)nn3)[C@H]3COC(=O)[C@H]23)OCO4)cc(OC)c1O
- IC50 (HepG2): 15.6 µM
- IC50 (A549): 23.8 µM
- IC50 (HeLa): > 100 µM
- IC50 (LoVo [1]): 24.2 µM

Structure (SMILES): COc1cc([C@@H]2c3cc4c(cc3[C@@H](n3cc(CNc5cc(=O)oc6ccc(Br)cc56)nn3)[C@H]3COC(=O)[C@H]23)OCO4)cc(OC)c1O
- IC50 (HepG2): 9.3 µM
- IC50 (A549): 8.6 µM
- IC50 (HeLa): 15.2 µM
- IC50 (LoVo [1]): 8.7 µM

Structure (SMILES): COc1cc([C@@H]2c3cc4c(cc3[C@@H](n3cc(CNc5cc(=O)oc6ccc(C)cc56)nn3)[C@H]3COC(=O)[C@H]23)OCO4)cc(OC)c1O
- IC50 (HepG2): 17.2 µM
- IC50 (A549): 34.8 µM
- IC50 (HeLa): 38.3 µM
- IC50 (LoVo [1]): 76 µM

Structure (SMILES): COc1cc([C@@H]2c3cc4c(cc3[C@@H](O[C@@H]3O[C@@H]5CO[C@@H](C)O[C@H]5[C@H](O)[C@H]3O)[C@H]3COC(=O)[C@H]23)OCO4)cc(OC)c1O [ETOPOSIDE]
- IC50 (HepG2): 10.5 µM
- Activity (LoVo [2]): Active
- Activity (LoVo [3]): Active
- Activity (LoVo [4]): 2%
- IC50 (A549): 25.6 µM
- Activity (LoVo [5]): Active
- Activity (LoVo [6]): Active
- Activity (LoVo [7]): 29.5%
- Activity (LoVo [8]): Active
- Activity (LoVo [9]): Active
- Activity (LoVo [10]): inactive
- Activity (LoVo [11]): Active
- IC50 (LoVo [1]): 14.9 µM

Structure (SMILES): COc1cc([C@@H]2c3cc4c(cc3[C@@H](n3cc(CNc5cc(=O)oc6ccccc56)nn3)[C@H]3COC(=O)[C@H]23)OCO4)cc(OC)c1O
- IC50 (HepG2): 27.5 µM
- IC50 (A549): 21.4 µM
- IC50 (HeLa): 27.2 µM
- IC50 (LoVo [1]): 38.6 µM

Structure (SMILES): COc1cc([C@@H]2c3cc4c(cc3[C@@H](n3cc(COc5cc(=O)oc6ccc(Br)cc56)nn3)[C@H]3COC(=O)[C@H]23)OCO4)cc(OC)c1O
- IC50 (HepG2): 4 µM
- IC50 (A549): 27.7 µM
- IC50 (HeLa): 20.1 µM
- IC50 (LoVo [1]): 19.8 µM

Structure (SMILES): COc1cc([C@@H]2c3cc4c(cc3[C@@H](n3cc(COc5cc(=O)oc6ccc(C)cc56)nn3)[C@H]3COC(=O)[C@H]23)OCO4)cc(OC)c1O
- IC50 (HepG2): 40.2 µM
- IC50 (A549): > 100 µM
- IC50 (HeLa): 45.4 µM
- IC50 (LoVo [1]): 33.2 µM

Structure (SMILES): COc1ccc2c(OCc3cn([C@@H]4c5cc6c(cc5[C@@H](c5cc(OC)c(O)c(OC)c5)[C@H]5C(=O)OC[C@@H]54)OCO6)nn3)cc(=O)oc2c1
- IC50 (HepG2): 27.5 µM
- IC50 (A549): 40.3 µM
- IC50 (HeLa): > 100 µM
- IC50 (LoVo [1]): > 100 µM

Structure (SMILES): COc1ccc2oc(=O)cc(NCc3cn([C@@H]4c5cc6c(cc5[C@@H](c5cc(OC)c(O)c(OC)c5)[C@H]5C(=O)OC[C@@H]54)OCO6)nn3)c2c1
- Activity (LoVo [12]): Dose-dependent effect
- Activity (LoVo [13]): Active
- Activity (LoVo [14]): 70.1%
- IC50 (HepG2): 9.9 µM
- Activity (LoVo [15]): Dose-dependent effect
- Activity (LoVo [16]): Active
- Activity (LoVo [17]): Active
- Activity (Calf thymus DNA [18]): inactive
- Activity (LoVo [19]): inactive
- Activity (Calf thymus DNA [20]): Active
- Activity (LoVo [2]): Active
- Activity (LoVo [4]): 90%
- IC50 (A549): 17.5 µM
- Activity (LoVo [21]): Active
- IC50 (HeLa): 9.7 µM
- Activity (LoVo [6]): Active
- Activity (LoVo [7]): 62%
- Activity (LoVo [22]): 79%
- Activity (LoVo [23]): Active
- Activity (LoVo [24]): Dose-dependent effect
- Activity (LoVo [25]): Dose-dependent effect
- Activity (LoVo [26]): inactive
- Activity (LoVo [27]): Active
- Activity (Calf thymus DNA [28]): Active
- IC50 (LoVo [1]): 4.9 µM

Structure (SMILES): COc1cc([C@@H]2c3cc4c(cc3[C@@H](n3cc(CNc5cc(=O)oc6cc(Br)ccc56)nn3)[C@H]3COC(=O)[C@H]23)OCO4)cc(OC)c1O
- IC50 (HepG2): 13.6 µM
- IC50 (A549): 13.3 µM
- IC50 (HeLa): 19.8 µM
- IC50 (LoVo [1]): 7.3 µM

Structure (SMILES): COc1ccc2c(NCc3cn([C@@H]4c5cc6c(cc5[C@@H](c5cc(OC)c(O)c(OC)c5)[C@H]5C(=O)OC[C@@H]54)OCO6)nn3)cc(=O)oc2c1
- IC50 (HepG2): 11.1 µM
- IC50 (A549): 28.1 µM
- IC50 (HeLa): 48.2 µM
- IC50 (LoVo [1]): 12.6 µM
